pIC50: −log10 of the molar value. Where two headings read alike, the source gives them in different places. Each block holds one compound with its values, some of them ahead of it.
Target: T1, recombinant full-length USP7 (Homo sapiens, UniProt Q93009)
T1 construct: A 25 μl reaction volume containing recombinant full-length USP7 (62 pM)
Assay: USP7-mediated ubiquitin-rhodamine cleavage assay
Assay type: biochemical
Details: recombinant full-length USP7 62 pM, ubiquitin-rhodamine 100 nM, 1 hour reaction at room temperature
Description: In the case of the USP7 deubiquitylating enzyme, the IC50 of an USP7 inhibiting compound is the concentration of the compound that inhibits 50% of the activity observed in a USP7-mediated ubiquitin-rhodamine cleavage assay.
For the USP7 inhibitors disclosed herein, their potency was measured using the following test method.
A 25 μl reaction volume containing recombinant full-length USP7 (62 pM) in 20 mM HEPES pH 7.3, 150 mM NaCl, 1 mM TCEP, and 125 μg/ml BSA was assembled in wells of 384 well plates. Test compounds were dispensed with a Hewlett Packard D300 digital dispenser (1% final DMSO). Following a 30-minute incubation at room temperature, ubiquitin-rhodamine was added with the D300 to a final concentration of 100 nM and the reaction was allowed to proceed for 1 hour at room temperature protected from light. The reaction was stopped by the addition of 5 μl 1M acetic acid. Rhodamine fluorescence was measured using an Envision plate reader (Perkin Elmer) and IC50 values were determined by non-linear regression using a 4-parameter fit in a Dotmatics (Bishops Stortford, Hertfordshire, England) software package.

[1] = 30-minute incubation with compound, read-out: Potency: USP7 IC50

T1 sequence (Q93009 whole entry): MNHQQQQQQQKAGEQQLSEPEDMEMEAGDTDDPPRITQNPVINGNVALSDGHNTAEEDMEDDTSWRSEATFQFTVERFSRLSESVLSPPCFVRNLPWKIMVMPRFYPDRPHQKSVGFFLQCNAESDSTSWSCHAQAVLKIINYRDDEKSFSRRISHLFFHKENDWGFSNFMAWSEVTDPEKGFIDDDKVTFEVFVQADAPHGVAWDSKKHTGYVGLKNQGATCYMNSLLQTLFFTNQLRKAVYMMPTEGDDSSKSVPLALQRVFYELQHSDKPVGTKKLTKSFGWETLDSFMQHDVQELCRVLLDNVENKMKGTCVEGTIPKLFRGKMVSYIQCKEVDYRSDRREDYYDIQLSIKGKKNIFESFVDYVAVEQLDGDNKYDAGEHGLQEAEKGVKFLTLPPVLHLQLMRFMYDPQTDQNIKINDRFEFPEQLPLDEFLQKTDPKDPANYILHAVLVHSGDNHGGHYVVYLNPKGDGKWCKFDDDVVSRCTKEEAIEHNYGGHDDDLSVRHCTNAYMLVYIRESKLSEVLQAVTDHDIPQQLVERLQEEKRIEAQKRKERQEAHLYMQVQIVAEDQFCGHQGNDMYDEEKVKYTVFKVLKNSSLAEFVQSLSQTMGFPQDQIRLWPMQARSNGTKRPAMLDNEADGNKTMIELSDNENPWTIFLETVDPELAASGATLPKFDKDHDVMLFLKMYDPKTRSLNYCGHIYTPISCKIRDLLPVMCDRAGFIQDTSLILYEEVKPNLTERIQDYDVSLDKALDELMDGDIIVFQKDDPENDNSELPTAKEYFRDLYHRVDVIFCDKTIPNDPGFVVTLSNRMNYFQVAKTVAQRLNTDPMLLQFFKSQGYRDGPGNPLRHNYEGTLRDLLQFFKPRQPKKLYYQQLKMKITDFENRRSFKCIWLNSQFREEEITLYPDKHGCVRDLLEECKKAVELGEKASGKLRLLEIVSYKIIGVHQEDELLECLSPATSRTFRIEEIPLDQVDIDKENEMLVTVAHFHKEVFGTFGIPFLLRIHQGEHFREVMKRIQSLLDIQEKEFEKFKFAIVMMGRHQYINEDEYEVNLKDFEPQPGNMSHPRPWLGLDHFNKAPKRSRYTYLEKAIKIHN

Compound: 1-(7-(2-((3-Azabicyclo[3.1.0]hexan-6-yl)methoxy)-5-chloro-3-methylphenyl)thieno[3,2-b]pyridin-2-yl)propan-1-ol [Example 88]
pIC50 [1]: 4.52 to 5.00

Compound: 2-((4-(5-Chloro-3-methyl-2-(piperidin-4-yloxy)phenyl)thieno[3,2-d]pyrimidin-6-yl)methyl)tetrahydrocyclopenta[c]pyrrole-1,3(2H,3aH)-dione [Example 178]
pIC50 [1]: > 6.00

Compound: 3-[[7-[5-chloro-2-[2-(3-hydroxyazetidin-1-yl)ethoxy]-3-methyl-phenyl]thieno[3,2- [Example 667]
pIC50 (30-minute pre-incubation, read-out: Potency (USP7 IC50)): > 6.00

Compound: 3-[[7-[5-chloro-3-methyl-2-[[(3S,6S)-6-methyl-3-piperidyl]oxy]phenyl]thieno[3,2-b]pyridin-2-yl]methyl]-6,6-dimethyl-3-azabicyclo[3.1.0]hexane-2,4-dione; 2,2,2-tirfluoroacetic acid [Example 304]
pIC50 [1]: > 6.00

Compound: CCC(O)c1cc2nccc(-c3cc(Cl)cc(C)c3OCC3CN(C)C3)c2s1 (stereo not shown) [Example 3, 1-(7-(5-Chloro-3-methyl-2-((1-methylazetidin-3-yl)methoxy)phenyl)thieno[3,2-b]pyridin-2-yl)propan-1-ol]
pIC50 [1]: 4.52 to 5.00

Compound: Cc1cc(Cl)cc(-c2ccnc3cc(Cn4c(=O)ccn(C)c4=O)sc23)c1O[C@H]1C[C@H](N)C1 [Example 7, 3-((7-(2-((1r,3r)-3-Aminocyclobutoxy)-5-chloro-3-methylphenyl)thieno[3,2-b]pyridin-2-yl)methyl)-1-methylpyrimidine-2,4(1H,3H)-dione]
pIC50 [1]: > 6.00

Compound: Cc1cc(Cl)cc(-c2ccnc3cc(CO)sc23)c1OC[C@H]1CCN1 [Example 16, (R)-(7-(2-(Azetidin-2-ylmethoxy)-5-chloro-3-methylphenyl)thieno[3,2-b]pyridin-2-yl)methanol]
pIC50 [1]: 4.52 to 5.00

Compound: Cc1cc(Cl)cc(-c2ccnc3cc(CO)sc23)c1OC[C@@H]1CCN1 [Example 18, (S)-(7-(2-(Azetidin-2-ylmethoxy)-5-chloro-3-methylphenyl)thieno[3,2-b]pyridin-2-yl)methanol]
pIC50 [1]: 4.52 to 5.00

Compound: Cc1cc(Cl)cc(-c2ccnc3cc(CO)sc23)c1OCC1(F)CNC1 [Example 20, (7-(5-Chloro-2-((3-fluoroazetidin-3-yl)methoxy)-3-methylphenyl)thieno[3,2-b]pyridin-2-yl)methanol]
pIC50 [1]: 5.00 to 6.00

Compound: OCc1cc2nccc(-c3cc(Cl)cc(Br)c3OCC3CNC3)c2s1 [Example 21, (7-(2-(Azetidin-3-ylmethoxy)-3-bromo-5-chlorophenyl)thieno[3,2-b]pyridin-2-yl)methanol]
pIC50 [1]: 5.00 to 6.00

Compound: CCc1cc(Cl)cc(-c2ccnc3cc(CO)sc23)c1OCC1CNC1 [Example 22, (7-(2-(Azetidin-3-ylmethoxy)-5-chloro-3-ethylphenyl)thieno[3,2-b]pyridin-2-yl)methanol]
pIC50 [1]: 5.00 to 6.00

Compound: OCc1cc2nccc(-c3cc(Cl)cc(C4CC4)c3OCC3CNC3)c2s1 [Example 23, (7-(2-(Azetidin-3-ylmethoxy)-5-chloro-3-cyclopropylphenyl)thieno[3,2-b]pyridin-2-yl)methanol]
pIC50 [1]: 5.00 to 6.00

Compound: Cc1cc(C#N)cc(-c2ncnc3ccsc23)c1OCC1(C)CNC1 [Example 24, 3-Methyl-4-((3-methylazetidin-3-yl)methoxy)-5-(thieno[3,2-d]pyrimidin-4-yl)benzonitrile]
pIC50 [1]: 4.52 to 5.00

Compound: Cc1cc(Cl)cc(-c2ncnc3ccsc23)c1OCC1(C)CNC1 [Example 26, 4-(5-Chloro-3-methyl-2-((3-methylazetidin-3-yl)methoxy)phenyl)thieno[3,2-d]pyrimidine]
pIC50 [1]: 4.52 to 5.00

Compound: Cc1cc2nccc(-c3cc(Cl)ccc3OCC3CNC3)c2s1 [Example 28, 7-(2-(Azetidin-3-ylmethoxy)-5-chlorophenyl)-2-methylthieno[3,2-b]pyridine]
pIC50 [1]: 5.00 to 6.00

Results, then the compound that gave them:

pIC50 [1]: > 6.00
Compound: 1-((4-(5-Chloro-2-(((3R,4S)-4-fluoropyrrolidin-3-yl)oxy)-3-methylphenyl)thieno[3,2-d]pyrimidin-6-yl)methyl)pyrrolidine-2,5-dione [Example 96]

pIC50 [1]: > 6.00
Compound: 3-((7-(5-Chloro-2-(((3S,4R)-4-fluoropiperidin-3-yl)oxy)-3-methyphenyl)thien[3,2-b]pyridin-2-yl)methyl)-1-(2,2,2-trifluoroethyl)pyrimidine-2,4(1H,3H)-dione [Example 4]

pIC50 [1]: > 6.00
Compound: 3-((7-(5-Chloro-3-methyl-2-(((1R,3R)-3-morpholinocyclopentyl)oxy)phenyl)thieno[3,2-b]pyridin-2-yl)methyl)-1-(2,2,2-trifluoroethyl)pyrimidine-2,4(1H,3H)-dione [Example 246]

pIC50 [1]: 5.00 to 6.00
Compound: Cc1cc(Cl)cc(-c2ccnc3cc([C@H](C)N4C(=O)CCC4=O)sc23)c1OC1CCNCC1 [Example 1, (S)-1-(1-(7-(5-Chloro-3-methyl-2-(piperidin-4-yloxy)phenyl)thieno[3,2-b]pyridin-2-yl)ethyl)pyrrolidine-2,5-dione]

pIC50 [1]: 5.00 to 6.00
Compound: Cc1cc(Cl)cc(-c2ccnc3cc(CN4CCCCS4(=O)=O)sc23)c1O[C@@H]1CNC[C@@H]1F [Example 2, 2-((7-(5-Chloro-2-(((3R,4S)-4-fluoropyrrolidin-3-yl)oxy)-3-methylphenyl)thieno[3,2-b]pyridin-2-yl)methyl)-1,2-thiazinane 1,1-dioxide]

pIC50 [1]: > 6.00
Compound: Cc1cc(Cl)cc(-c2ccnc3cc(Cn4c(=O)ccn(C5COC5)c4=O)sc23)c1O[C@H]1CCCNC1 [Example 5, (S)-3-((7-(5-Chloro-3-methyl-2-(piperidin-3-yloxy)phenyl)thieno[3,2-b]pyridin-2-yl)methyl)-1-(oxetan-3-yl)pyrimidine-2,4(1H,3H)-dione]

pIC50 [1]: > 6.00
Compound: Cc1cc(Cl)cc(-c2ccnc3cc(Cn4c(=O)ccn(C)c4=O)sc23)c1OC1CNCC(C)(C)C1 (stereo not shown) [Example 6, 3-((7-(5-Chloro-2-((5,5-dimethylpiperidin-3-yl)oxy)-3-methylphenyl)thieno[3,2-b]pyridin-2-yl)methyl)-1-methylpyrimidine-2,4(1H,3H)-dione]

pIC50 [1]: > 6.00
Compound: Cc1cc(Cl)cc(-c2ccnc3cc(Cn4c(=O)ccn(C)c4=O)sc23)c1O[C@H]1CCCNCC1 [Example 8, (S)-3-((7-(2-(Azepan-4-yloxy)-5-chloro-3-methylphenyl)thieno[3,2-b]pyridin-2-yl)methyl)-1-methylpyrimidine-2,4(1H,3H)-dione]

pIC50 [1]: > 6.00
Compound: Cc1cc(C#N)cc(-c2ccnc3ccsc23)c1OCC1(C#N)CNC1 [Example 9, 3-((4-Cyano-2-methyl-6-(thieno[3,2-b]pyridin-7-yl)phenoxy)methyl)azetidine-3-carbonitrile]

pIC50 [1]: > 6.00
Compound: CCC(O)c1cc2nccc(-c3cc(C#N)cc(C)c3OCC3(C#N)CNC3)c2s1 (stereo not shown) [Example 10, 3-((4-Cyano-2-(2-(1-hydroxypropyl)thieno[3,2-b]pyridin-7-yl)-6-methylphenoxy)methyl)azetidine-3-carbonitrile]

pIC50 [1]: 5.00 to 6.00
Compound: Cc1cc(C#N)cc(-c2ccnc3cc(CO)sc23)c1OCC1(C#N)CNC1 [Example 11, 3-((4-Cyano-2-(2-(hydroxymethyl)thieno[3,2-b]pyridin-7-yl)-6-methylphenoxy)methyl)azetidine-3-carbonitrile]

pIC50 [1]: > 6.00
Compound: Cc1cc(Cl)cc(-c2ccnc3cc(CN4C(=O)CCC4=O)sc23)c1OCC1(C#N)CNC1 [Example 12, 3-((4-Chloro-2-(2-((2,5-dioxopyrrolidin-1-yl)methyl)thieno[3,2-b]pyridin-7-yl)-6-methylphenoxy)methyl)azetidine-3-carbonitrile]

pIC50 [1]: 5.00 to 6.00
Compound: CCC(O)c1cc2ncnc(-c3cc(Cl)cc(C)c3OCC3CNC3)c2s1 (stereo not shown) [Example 13, 1-(4-(2-(Azetidin-3-ylmethoxy)-5-chloro-3-methylphenyl)thieno[3,2-d]pyrimidin-6-yl)propan-1-ol]

pIC50 [1]: 5.00 to 6.00
Compound: CCC(O)c1cc2nccc(-c3cc(Cl)cc(C)c3OCC3CNC3)c2s1 (stereo not shown) [Example 14, 1-(7-(2-(Azetidin-3-ylmethoxy)-5-chloro-3-methylphenyl)thieno[3,2-b]pyridin-2-yl)propan-1-ol]

pIC50 [1]: > 6.00
Compound: Cc1cc(Cl)cc(-c2ccnc3cc(CN4C(=O)CCC4=O)sc23)c1OCC1(F)CNC1 [Example 15, 1-((7-(5-Chloro-2-((3-fluoroazetidin-3-yl)methoxy)-3-methylphenyl)thieno[3,2-b]pyridin-2-yl)methyl)pyrrolidine-2,5-dione]

pIC50 [1]: 5.00 to 6.00
Compound: Cc1cc(Cl)cc(-c2ccnc3cc(CO)sc23)c1OCC1(C)CNC1 [Example 17, (7-(5-Chloro-3-methyl-2-((3-methylazetidin-3-yl)methoxy)phenyl)thieno[3,2-b]pyridin-2-yl)methanol]

pIC50 [1]: 5.00 to 6.00
Compound: Cc1cc(Cl)cc(-c2ccnc3cc(CO)sc23)c1OCC1CNC1 [Example 19, (7-(2-(Azetidin-3-ylmethoxy)-5-chloro-3-methylphenyl)thieno[3,2-b]pyridin-2-yl)methanol]

pIC50 [1]: > 6.00
Compound: Cc1cc(Cl)cc(-c2ccnc3cc(CN4C(=O)CN(C)C4=O)sc23)c1OCC1(C)CNC1 [Example 25, 3-((7-(5-Chloro-3-methyl-2-((3-methylazetidin-3-yl)methoxy)phenyl)thieno[3,2-b]pyridin-2-yl)methyl)-1-methylimidazolidine-2,4-dione]

pIC50 [1]: > 6.00
Compound: Cc1cc(C#N)cc(-c2ccnc3cc(CN4C(=O)CCC4=O)sc23)c1OCC1(C#N)CNC1 [Example 27, 3-((4-Cyano-2-(2-((2,5-dioxopyrrolidin-1-yl)methyl)thieno[3,2-b]pyridin-7-yl)-6-methylphenoxy)methyl)azetidine-3-carbonitrile]

Reference: US10722514B2 (FLX Bio, Inc., priority 2017, dated 2020)
